Reference: US8440684B2, “Polycyclic pyrrolidine-2,5-dione derivatives as -formyl peptide receptor like-1 (FPRL-1) receptor modulators” (Allergan, Inc., priority 2011, dated 2013)

Target: T1, FPRL1 (Homo sapiens, UniProt P25090)
T1 construct: expressed in transfected cells
T1 sequence (P25090 1-351): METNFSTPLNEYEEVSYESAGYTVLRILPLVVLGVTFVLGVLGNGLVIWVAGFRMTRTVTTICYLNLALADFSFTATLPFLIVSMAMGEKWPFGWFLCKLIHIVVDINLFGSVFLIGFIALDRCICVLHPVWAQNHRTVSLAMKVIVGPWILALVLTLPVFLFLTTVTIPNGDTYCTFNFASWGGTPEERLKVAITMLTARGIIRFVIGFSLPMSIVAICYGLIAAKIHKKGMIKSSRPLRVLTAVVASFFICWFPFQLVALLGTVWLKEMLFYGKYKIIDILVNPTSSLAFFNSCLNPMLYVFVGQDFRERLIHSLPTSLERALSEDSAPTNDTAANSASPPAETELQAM
Test: compound-induced calcium activity on FLIPR Tetra in CHO-Ga16 cells stably expressing FPRL1
Type: cell-based
Conditions: for FPRL1 (rel. eff.): relative efficacy; for EC50: tested 0.61 to 10,000 nM
Description: CHO-Ga16 cells stably expressing FPRL1 were cultured in (F12, 10% FBS, 1% PSA, 400 μg/ml geneticin and 50 μg/ml hygromycin) and HEK-Gqi5 cells stable expressing FPR1 were cultured in (DMEM high glucose, 10% FBS, 1% PSA, 400 μg/ml geneticin and 50 μg/ml hygromycin). In general, the day before the experiment, 18,000 cells/well were plated in a 384-well clear bottom poly-d-lysine coated plate. The following day the screening compound-induced calcium activity was assayed on the FLIPR^Tetra. The drug plates were prepared in 384-well microplates using the EP3 and the MultiPROBE robotic liquid handling systems. Compounds were tested at concentrations ranging from 0.61 to 10,000 nM. Results are expressed as EC50 (nM) and efficacy values.

Row | Structure (SMILES) | FPRL1 (rel. eff.) | EC50 [nM]
1 | CS(=O)(=O)c1ccc(NC(=O)CN2C(=O)C3C(C2=O)C2CCC3C23CC3)cc1 (stereo not shown) [Compound 4, 2-(1,3-dioxooctahydro-2H-spiro[2-aza-4,7-methanoisoindole-8,1′-cyclopropan]-2-yl)-N-[4-(methylsulfonyl)phenyl]acetamide] | (0.72) | 3460
2 | O=C(CN1C(=O)C2C(C1=O)C1CCC2C12CC2)Nc1ccc(I)cc1 (stereo not shown) [Compound 5, 2-(1,3-dioxooctahydro-2H-spiro[2-aza-4,7-methanoisoindole-8,1′-cyclopropan]-2-yl)-N-(4-iodophenyl)acetamide] | (0.86) | 2650
3 | CCc1ccc(NC(=O)CN2C(=O)C3C(C2=O)C2CCC3C23CC3)cc1 (stereo not shown) [Compound 6, 2-(1,3-dioxooctahydro-2H-spiro[2-aza-4,7-methanoisoindole-8,1′-cyclopropan]-2-yl)-N-(4-ethylphenyl)acetamide] | (0.91) | 1150
4 | CC(=O)c1ccc(NC(=O)CN2C(=O)C3C(C2=O)C2CCC3C23CC3)cc1 (stereo not shown) [Compound 7, N-(4-acetylphenyl)-2-(1,3-dioxooctahydro-2H-spiro[2-aza-4,7-methanoisoindole-8,1′-cyclopropan]-2-yl)acetamide] | (0.63) | 7830
5 | O=C(CN1C(=O)C2C(C1=O)C1CCC2C12CC2)Nc1ccc(Cl)nc1 (stereo not shown) [Compound 8, N-(6-chloropyridin-3-yl)-2-(1,3-dioxooctahydro-2H-spiro[2-aza-4,7-methanoisoindole-8,1′-cyclopropan]-2-yl)acetamide] | (0.86) | 2510
6 | CC(C(=O)Nc1ccc(Br)cc1)N1C(=O)C2C(C1=O)C1CCC2C12CC2 (stereo not shown) [Compound 11, N-(4-bromophenyl)-2-(1,3-dioxooctahydro-2H-spiro[2-aza-4,7-methanoisoindole-8,1′-cyclopropan]-2-yl)propanamide] | (0.93) | > 5000
7 | O=C(CN1C(=O)C2C3C=CC(C3)C2C1=O)Nc1ccc(Br)cc1 (stereo not shown) [N-(4-bromophenyl)-1,3,3a,4,7,7a-hexahydro-1,3-dioxo-4,7-methano-2H-isoindole-2-acetamide, reference compound] | (0.90) | 575

Continued by falling EC50, values first:

Row | FPRL1 (rel. eff.) | EC50 [nM] | Structure (SMILES)
8 | (0.9) | 2320 | O=C(CN1C(=O)C2C(C1=O)C1CCC2C12CC2)Nc1ccc(F)cc1 (stereo not shown) [Compound 9, 2-(1,3-dioxooctahydro-2H-spiro[2-aza-4,7-methanoisoindole-8,1′-cyclopropan]-2-yl)-N-(4-fluorophenyl)acetamide]
9 | (1.0) | 2050 | O=C(CN1C(=O)C2C(C1=O)C1CCC2C12CC2)Nc1ccc(Cl)cc1 (stereo not shown) [Compound 3, N-(4-chlorophenyl)-2-(1,3-dioxooctahydro-2H-spiro[2-aza-4,7-methanoisoindole-8,1′-cyclopropan]-2-yl)acetamide]
10 | (0.91) | 812 | O=C(CN1C(=O)C2C(C1=O)C1C=CC2C12CC2)Nc1ccc(Br)cc1 (stereo not shown) [Compound 12, N-(4-bromophenyl)-2-(1,3-dioxo-1,3,3a,4,7,7a-hexahydro-2H-spiro[2-aza-4,7-methanoisoindole-8,1′-cyclopropan]-2-yl)acetamide]
11 | (0.98) | 395 | O=C(CN1C(=O)C2CC=CCC2C1=O)Nc1ccc(Br)cc1 (stereo not shown) [N-(4-bromophenyl)-1,3,3a,4,7,7a-hexahydro-1,3-dioxo-2H-isoindole-2-acetamide, reference compound]
12 | (1.0) | 336 | CSc1ccc(NC(=O)CN2C(=O)C3C(C2=O)C2CCC3C23CC3)cc1 (stereo not shown) [Compound 2, 2-(1,3-dioxooctahydro-2H-spiro[2-aza-4,7-methanoisoindole-8,1′-cyclopropan]-2-yl)-N-[4-(methylthio)phenyl]acetamide]
13 | (1.0) | 267 | COc1ccc(NC(=O)CN2C(=O)C3C(C2=O)C2CCC3C23CC3)cc1 (stereo not shown) [Compound 10, 2-(1,3-dioxooctahydro-2H-spiro[2-aza-4,7-methanoisoindole-8,1′-cyclopropan]-2-yl)-N-(4-methoxyphenyl)acetamide]
14 | (0.9) | 118 | O=C(CN1C(=O)C2C(C1=O)C1CCC2C12CC2)Nc1ccc(Br)cc1 (stereo not shown) [Compound 1, N-(4-Bromophenyl)-2-(1,3-dioxooctahydro-2H-spiro[2-aza-4,7-methanoisoindole-8,1′-cyclopropan]-2-yl)acetamide]
